System: T1, scalarin (PsSC)
T1 construct: native, purified from newly laid egg clutches (ultracentrifugation, size exclusion); 380 kDa glycosylated carotenoprotein oligomer of 35, 28 and 24 kDa subunits
Experiment: inhibition of rabbit erythrocyte hemagglutination (titre)
Assay type: cell-based, Pomacea scalaris
Conditions: 200000 µM, TBS pH 7.4, 37 °C, 1 h preincubation, 2% rabbit erythrocytes
Description: inhibition of rabbit erythrocyte hemagglutination (titre) on scalarin (PsSC)

Structure (SMILES)	% Inhibition [%]	% Inhibition (text prints 99.99%) [%]
CC(=O)N[C@H]1C(O)O[C@H](CO)[C@H](O)[C@@H]1O (stereo partly drawn) [N-acetyl-D-galactosamine]	50.0	–
N[C@H]1C(O)O[C@H](CO)[C@H](O)[C@@H]1O (stereo partly drawn) [galactosamine]	–	99.9
N[C@H]1C(O)O[C@H](CO)[C@@H](O)[C@@H]1O (stereo partly drawn) [glucosamine]	99.6	–
